Reference: US20060128699A1, “Novel pharmacophore for the discovery and testing of na,k-atpase inhibitor compositions and methods for their use in treating cardiovascular diseases and conditions” (priority 2002, published 2006)
“And” between values parts separate entries of the source, which are not always exact repeats. Equal values may be shown once.

Assays:
[1] = target: T1, Na, K-ATPase (Ovis aries, UniProt P04074); assay: NKA assay started by addition of ATP; format: biochemical, lamb; settings: for ratio (digoxin) / IC50: assay started by addition of ATP; for ratio (digoxin): IC50_aver. relative to digoxin
T1 construct: Na, K-ATPase will be purified from the outer medulla of frozen lamb kidney; from tissue; host or cells: outer medulla of frozen lamb kidney

[2] = target: T1, Na, K-ATPase; assay: NKA assay started by addition of KCl; format: biochemical, lamb; settings: for ratio (digoxin): IC50_aver. relative to digoxin
[3] = target: rat 1α-subunit of the Na, K-ATPase (Rattus norvegicus, UniProt P06685); settings: cited from earlier work
[4] = target: human 1α-subunit of the Na, K-ATPase (Homo sapiens, UniProt P05023); settings: cited from earlier work
[5] = target: sheep 1α-subunit of the Na, K-ATPase, D121N mutant (Ovis aries, UniProt P04074, D126N); settings: D121N versus wild-type sheep; cited from earlier work
[6] = target: sheep 1α-subunit of the Na, K-ATPase, Q111R and N122D mutant (Ovis aries, UniProt P04074, N127D/Q116R); settings: Q111R and N122D versus wild-type sheep catalytic subunit; cited from earlier work
[7] = determination 1, read-out: IC50_1
[8] = determination 2, read-out: IC50_2
[9] = determination 3, read-out: IC50_3
[10] = assay started by addition of KCl
[11] = assay started by addition of KCl, average, read-out: IC50_aver.
[12] = assay started by addition of KCl, determination 1, read-out: IC50_1
[13] = assay started by addition of KCl, determination 2, read-out: IC50_2

IC50 ([1]; average, read-out: IC50_aver.) | IC50 [1, 8] [µM] | Compound | ratio (digoxin) [1] | IC50 [1, 7] [µM] | ATPase inhibition (in words) [1] | IC50 [1, 9] [µM] | ratio (digoxin) [2, 10] | also measured
270 µM | 253 | Oc1cc(O)c2c(c1)O[C@H](c1ccc(O)c(O)c1)[C@@H](O)C2 [Compound 9, (+)-Catechin Hydrate] | 664 | 287 |  |  |  | 
70.6 µM | 76.8 | CC(CCc1ccc(O)cc1)NCCc1ccc(O)c(O)c1 (stereo not shown) [Compound 25, R—S Dobutamine] | 173 | 64.4 |  |  |  | 
203 µM | 102 | COc1cccc2c1Sc1ccccc1C(=O)C2 [Compound 27] | 497 | 386 |  | 120 |  | 
359 µM and 38.1 µM | 42.5 | COc1cc2c(c(OC)c1)Sc1ccccc1C(=O)C2 [Compound 28] |  |  | strong ATPase inhibition | 36.3 | 6764 | IC50 ([1]; determination 4, read-out: IC50_4): 145 µM; IC50 [2, 11]: 67.6 µM; IC50 [2, 12]: 75.6 µM; IC50 [2, 13]: 59.7 µM
 |  | C[C@@H]1O[C@@H](O[C@H]2C[C@@H](O)[C@]3(CO)[C@H]4[C@H](O)C[C@]5(C)[C@@H](C6=CC(=O)OC6)CC[C@]5(O)[C@@H]4CC[C@]3(O)C2)[C@H](O)[C@H](O)[C@H]1O [ouabain] |  |  |  |  |  | sensitivity to ouabain inhibition (in words) ([3]; rat subunit): insensitive; loss in ouabain inhibition ([3]; rat α1-subunit): ~1000 fold; sensitivity to ouabain (in words) [4]: sensitive; decrease in sensitivity to ouabain [5]: 1000 fold; less sensitive to ouabain than wild-type [6]: 1150 fold

Compound | IC50 ([1]; average, read-out: IC50_aver.) | IC50 [1, 8] [µM] | ratio (digoxin) [1] | IC50 [1, 7] [µM] | ATPase inhibition (in words) [1] | IC50 [1, 9] [µM] | ratio (digoxin) [2, 10] | also measured
O=C1C=CC2C(=C1[N+](=O)[O-])Oc1c(ccc(O)c1[N+](=O)[O-])C2c1ccccc1C(=O)O (stereo not shown) [Compound 14, 4′-5′ Di nitroflorescein] | 8.75 µM | 8.87 | 21.5 | 5.69 | strong ATPase inhibition | 11.7 | 869 | IC50 ([2]; IC50_1, assay started by addition of KCl, determination 1): 7.81 µM; IC50 ([2]; IC50_2, assay started by addition of KCl, determination 2): 9.53 µM; IC50 ([2]; IC50_aver., assay started by addition of KCl, average): 8.69 µM
Cc1cc(O)c2c(c1)C(=O)c1cc(O)cc(O)c1C2=O [Compound 15, Emodin] | 89.8 µM | 75.5 | 220 | 32.2 |  | 162 |  | 
Lacmoid [Compound 19] | 13.4 µM | 192 | 32.9 | 11.2 | strong ATPase inhibition | 9.7 | 340 | IC50 [2, 11]: 3.4 µM; IC50 [2, 12]: 3.55 µM; IC50 [2, 13]: 3.25 µM
